The nature of assay [1]: OVCAR8 cell viability loss – plate reader, dry powder samples, PAX8 project, dose response (AID 743197). The assay is classed as functional, cell-based. To be noted: OVCAR-8.
In assay [2] the target is Paired box protein Pax-8 (Homo sapiens, UniProt Q06710). The experiment in a line: PAX8 transcriptional activity inhibition in RMG-I – RMG-I cells, luciferase, cherry-pick, dose response (AID 687027).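 Further: luciferase reporter driven by Pax8 target thyroperoxidase promoter measured by SteadyGlo luminescence.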 The assay is classed as functional, cell-based.
Paired box protein Pax-8, sequence (Q06710 whole entry): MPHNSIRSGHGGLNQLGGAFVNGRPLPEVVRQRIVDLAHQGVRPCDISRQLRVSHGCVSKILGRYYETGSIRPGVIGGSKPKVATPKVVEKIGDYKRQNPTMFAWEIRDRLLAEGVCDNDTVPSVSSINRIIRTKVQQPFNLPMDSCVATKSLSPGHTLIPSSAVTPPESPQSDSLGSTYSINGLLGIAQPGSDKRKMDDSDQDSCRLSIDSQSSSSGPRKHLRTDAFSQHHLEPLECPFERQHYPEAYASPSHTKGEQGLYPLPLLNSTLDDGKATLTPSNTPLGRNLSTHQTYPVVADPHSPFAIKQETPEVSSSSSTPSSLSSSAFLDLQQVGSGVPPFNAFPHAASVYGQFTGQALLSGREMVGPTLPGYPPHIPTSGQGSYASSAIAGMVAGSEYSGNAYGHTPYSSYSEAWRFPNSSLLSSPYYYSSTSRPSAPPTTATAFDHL
The nature of assay [3]: IGROV1 cell killing – plate reader, dry powder samples, PAX8 inhibitor project, dose response (AID 743043). Type of assay: functional, cell-based. The following applies: IGROV-1.
Assay [4] deals with T1, Mannose-6-phosphate isomerase (Homo sapiens, UniProt P34949).
T1 sequence (P34949 whole entry): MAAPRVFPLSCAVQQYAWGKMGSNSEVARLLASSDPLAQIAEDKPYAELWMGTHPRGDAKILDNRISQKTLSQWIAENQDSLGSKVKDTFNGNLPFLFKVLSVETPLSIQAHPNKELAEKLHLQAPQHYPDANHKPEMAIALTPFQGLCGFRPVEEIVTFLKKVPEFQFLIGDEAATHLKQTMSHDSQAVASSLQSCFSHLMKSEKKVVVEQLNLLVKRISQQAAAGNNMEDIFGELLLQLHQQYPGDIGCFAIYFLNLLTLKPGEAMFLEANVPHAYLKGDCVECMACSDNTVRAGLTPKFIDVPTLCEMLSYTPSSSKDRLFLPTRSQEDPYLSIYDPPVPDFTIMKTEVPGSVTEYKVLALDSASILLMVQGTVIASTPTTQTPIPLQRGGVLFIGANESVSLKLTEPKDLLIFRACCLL
Put plainly: MPI inhibition at elevated mannose 6-phosphate – biochemical, fluorescence intensity, high mannose 6-phosphate, primary screen (AID 1220).

A short description of assay [5]: viability loss in human Jurkat cells – cell-based, luminescence, cytotoxicity control for P. falciparum gametocyte viability project, dose response (AID 1117277).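 Further: potency reflects loss of cellular ATP meaning fewer viable cells.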 Type of assay: functional.
Assay [6] is described as follows: viability inhibitors of stage V gametocytes – luminescence, dose response (AID 1117278).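 Further: gametocytes exposed to compound for 24 hours.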 Type of assay: functional, cell-based.
Assay [7] addresses T2, COUP transcription factor 2 (Homo sapiens, UniProt P24468).
T2 sequence (P24468 whole entry): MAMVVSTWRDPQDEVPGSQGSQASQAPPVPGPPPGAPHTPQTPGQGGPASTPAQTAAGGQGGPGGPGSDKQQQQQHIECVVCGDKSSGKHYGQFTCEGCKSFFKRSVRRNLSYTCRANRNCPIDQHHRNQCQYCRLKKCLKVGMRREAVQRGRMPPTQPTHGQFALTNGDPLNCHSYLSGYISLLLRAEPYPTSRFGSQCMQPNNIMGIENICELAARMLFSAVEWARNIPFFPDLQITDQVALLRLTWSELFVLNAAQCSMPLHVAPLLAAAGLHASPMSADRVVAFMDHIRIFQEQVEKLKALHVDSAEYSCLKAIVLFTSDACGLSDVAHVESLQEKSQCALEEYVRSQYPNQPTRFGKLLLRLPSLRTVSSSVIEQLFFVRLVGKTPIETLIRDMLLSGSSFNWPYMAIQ
Put plainly: Luminescence-based cell-based high throughput dose response assay to identify inhibitors of COUP-TFII (NR2F2). The assay is classed as functional.

The target in assay [8] is Prothrombin (Homo sapiens, UniProt P00734). Put plainly: Thrombin 1536 HTS Dose Response Confirmation. [Related pubchem assays: 1046 (Thrombin 1536 HTS; hits were confirmed in this assay)]. Type of assay: functional.
Assay [9] can be described thus: viability of uninfected HEp-2 cells – cell-based, HTS, cytotoxicity control for RSV inhibitor project, dose response (AID 2410). The assay is classed as functional. The following applies: human respiratory syncytial virus.
Assay [10] can be described thus: blockers of HIV-1 envelope-mediated cell-cell fusion – cherry-pick, dose response (AID 652057). The assay is classed as functional, cell-based.
The nature of assay [11]: off-target signal loss in HeLa-CEM21 co-culture – HeLa F-luc CTL cells, cherry-picked, counter-screen for HIV-1 Env fusion inhibitor project, dose response (AID 652040).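 Further: potency for signal decrease marking cytotoxic or nonspecific inhibition.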 Type of assay: functional, cell-based. (In general: Counterscreens check selectivity or assay interference.)
Assay [12] is described as follows: blockers of HIV-1 ZM109 envelope-driven cell-cell fusion – HeLa effector, CEM target cells, luciferase, cherry-pick, dose response (AID 652058).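 Further: luciferase signal from HIV-1 Env mediated cell-cell fusion of effector and target cells.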 Type of assay: functional, cell-based.
The nature of assay [13]: HIV-1 AD8 envelope cell-cell fusion blockers – cherry-pick, dose response (AID 652062).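 Further: luciferase signal from cell-cell fusion driven by HIV-1 clade B AD8 Env; potency is for inhibitors of fusion seen as a drop in luminescence.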 Type of assay: functional, cell-based.
The target of assay [14] is T3, Corticotropin-releasing factor receptor 2/Corticotropin-releasing factor-binding protein (Homo sapiens, UniProt P24387+Q13324).
T3 sequence (Q13324 whole entry): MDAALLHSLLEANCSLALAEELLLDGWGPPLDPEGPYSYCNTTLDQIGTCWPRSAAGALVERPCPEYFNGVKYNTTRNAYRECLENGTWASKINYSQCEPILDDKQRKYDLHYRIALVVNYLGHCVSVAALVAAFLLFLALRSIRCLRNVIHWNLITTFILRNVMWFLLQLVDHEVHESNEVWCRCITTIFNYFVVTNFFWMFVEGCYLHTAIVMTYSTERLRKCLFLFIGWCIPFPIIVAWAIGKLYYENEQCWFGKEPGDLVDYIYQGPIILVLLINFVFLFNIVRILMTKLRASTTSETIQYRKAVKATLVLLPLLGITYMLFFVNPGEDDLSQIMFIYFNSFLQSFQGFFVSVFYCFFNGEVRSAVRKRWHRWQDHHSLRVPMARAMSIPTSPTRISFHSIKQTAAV
T3 sequence (P24387 whole entry): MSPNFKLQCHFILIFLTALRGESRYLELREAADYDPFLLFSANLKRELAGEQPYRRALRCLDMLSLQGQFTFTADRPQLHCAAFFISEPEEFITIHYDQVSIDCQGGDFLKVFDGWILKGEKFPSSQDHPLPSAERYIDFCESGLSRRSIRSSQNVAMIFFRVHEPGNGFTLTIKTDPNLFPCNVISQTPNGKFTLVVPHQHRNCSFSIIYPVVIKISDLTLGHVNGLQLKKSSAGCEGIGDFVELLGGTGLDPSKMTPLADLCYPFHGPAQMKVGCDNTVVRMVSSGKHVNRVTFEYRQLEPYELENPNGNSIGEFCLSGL
The experiment in a line: activators of CRF receptor 2 with binding protein – uHTS hits, confirmation (AID 602473). The assay is classed as functional. To be noted: read-out: EC50_Mean.

The target in assay [15] is T4, Protein skinhead-1 (Caenorhabditis elegans, UniProt P34707).
T4 sequence (P34707 whole entry): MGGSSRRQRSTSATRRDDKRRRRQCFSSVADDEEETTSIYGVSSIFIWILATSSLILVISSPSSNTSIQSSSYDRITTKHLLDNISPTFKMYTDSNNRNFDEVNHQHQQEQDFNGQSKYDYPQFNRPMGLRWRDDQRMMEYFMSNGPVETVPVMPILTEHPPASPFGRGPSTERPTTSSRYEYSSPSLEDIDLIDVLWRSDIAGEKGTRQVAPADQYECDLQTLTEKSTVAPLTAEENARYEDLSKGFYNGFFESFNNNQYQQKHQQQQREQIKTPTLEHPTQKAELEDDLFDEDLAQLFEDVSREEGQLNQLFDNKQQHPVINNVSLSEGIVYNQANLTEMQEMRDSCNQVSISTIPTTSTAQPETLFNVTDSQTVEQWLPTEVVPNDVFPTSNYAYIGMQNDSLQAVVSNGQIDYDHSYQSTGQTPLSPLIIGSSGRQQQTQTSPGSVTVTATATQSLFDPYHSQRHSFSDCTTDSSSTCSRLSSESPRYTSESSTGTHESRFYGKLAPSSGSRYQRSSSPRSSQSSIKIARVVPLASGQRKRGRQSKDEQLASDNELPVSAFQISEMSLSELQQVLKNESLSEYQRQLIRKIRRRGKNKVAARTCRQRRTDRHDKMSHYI
Type of assay: functional.

Assay [16] concerns the target T3, Corticotropin-releasing factor receptor 2/Corticotropin-releasing factor-binding protein. The experiment in a line: Dose Response confirmation of uHTS hits for small molecule antagonists of the CRF-binding protein and CRF-R2 receptor complex. The following applies: read-out: IC50_Mean. The assay is classed as functional.
Assay [17] is described as follows: HEK-293T cell viability reduction – luminescence, B-cell screen hits, cytotoxicity control for BCR NF-kB inhibitor project, dose response (AID 489021).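 Further: HEK-293T cells carrying an NF-kB luciferase reporter; cells exposed to compound for about 14 hours before viability readout.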 The assay is classed as functional, cell-based.
Assay [18] is described as follows: loss of viability in HepG2 cells – cell-based, CellTiter-Glo, cherry-picked, cytotoxicity control for Shn3 inhibitor project, dose response (AID 624134). Type of assay: functional.
Assay [19] is described as follows: reduction of Shn3 3'UTR-driven luciferase in osteoblasts – cell-based, Clone20 osteoblasts, firefly luciferase, cherry-picked, dose response (AID 624132).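 Further: firefly luciferase luminescence from reporter carrying the Shn3 3'UTR in osteoblasts.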 The assay is classed as functional.
A short description of assay [20]: OVCAR-3 cell viability loss – plate reader, dry powder samples, PAX8 inhibitor project, dose response (AID 743044). Type of assay: functional, cell-based.

Calls of active or inactive are those of the source.

Usually AC50 stands for the concentration at which the activity in the assay is half-maximal. As to `C[C@@H]1CCCCO[C@@H](CN(C)Cc2ccc(Cl)c(Cl)c2)[C@H](C)CN([C@H](C)CO)C(=O)c2cc(NS(=O)(=O)c3ccc(Cl)cc3)ccc2O1`, the AC50 is > 70 µM (inactive) in assay [1], 8.68 µM (active) in assay [2] and 59.2 µM (active) in [3].

Consider `CCC(C)N1C(=O)NC(=O)C2(Cc3c(ccc4ccccc34)N(C)C2)C1=O` (stereo not given), for which the IC50 in [4] was > 50 µM (not active).

Take `COc1ccccc1NC(=O)CSc1nnc(-c2ccc(NC(C)=O)cc2)n1C`: the IC50 was > 83.3 µM (inactive) in assay [5] and > 109 µM (inactive) in assay [6].

For `Cc1ccc(-n2nc3c(=O)n(C(C)C(=O)NCCC4=CCCCC4)nc(C)c3c2C)cc1` (stereo not given), the IC50 in assay [7] was 6.62 µM (active).

`NC(=O)c1c(NC(=O)Cn2nc(C(=O)O)c3ccccc3c2=O)sc2c1CCCC2`: the IC50 in assay [8] was 24.3 µM (active).

For `Cc1ccc(C(=O)NC(C)C(c2cccs2)N2CCCC2)s1` (stereo not given), the IC50 in assay [5] is > 83.3 µM (inactive); in assay [6] it was > 109 µM (inactive); in [8], > 50 µM (not active).

As for `Cc1ccc(Cl)cc1NS(=O)(=O)c1c(C)[nH]c(=O)[nH]c1=O`, in [8], the IC50 was > 50 µM (not active).

By CC50 is commonly meant the concentration that lowers cell viability or growth by half. For `O=C(CCC(=O)N1CCN(S(=O)(=O)c2ccc3ccccc3c2)CC1)Nc1cc(Cl)cc(Cl)c1`, the CC50 in assay [9] is > 6.25 µM (active). The concentration at half-maximal activity (AC50) was 3.61 µM (active) in assay [10], 6.16 µM (active) in assay [11], 4.28 µM (active) in [12] and 14.2 µM (active) in assay [13].

As for `Cn1nnc2cc(C(=O)NCCC3=CCCCC3)ccc21`, the EC50 in [14] was > 53 µM (inactive). The values for the IC50 in [15] and in assay [16] were > 100 µM (inactive) and > 47.1 µM (inactive), respectively.

In the case of `OCC(CO)(CO)/N=C/c1c(O)ccc2ccccc12`, the IC50 in assay [4] is 38.6 µM (active).

Turning to `COc1ccc(OC)c(NS(=O)(=O)c2ccc(NC(C)=O)cc2)c1`, the IC50 in [5] was > 83.3 µM (inactive); in assay [6] it was > 109 µM (inactive).

On to `S=C(Nc1ccc2c[nH]nc2c1)Nc1ccc(Cl)cc1Cl`, for which, in assay [4], the IC50 is given as > 50 µM (not active).

As for `CS(=O)(=O)Nc1cccc(C(=O)CC2(O)C(=O)Nc3ccc(Br)cc32)c1` (stereo not given), the IC50 in assay [8] is 0.525 µM (active).

As for `Cc1onc(-c2ccccc2Cl)c1C(=O)NCCN1CCOCC1`, the IC50 in assay [5] is > 83.4 µM (inactive); in assay [6], > 109 µM (inactive).

Turning to `COC(=O)C1=C(c2ccc(-c3ccccc3)c(F)c2)C[C@@H]2CC[C@H]1N2C(=O)N1CCCC1`, the IC50 in assay [17] is > 80 µM (inactive); in [7], 8.17 µM (active). The AC50 in [18] is 6.77 µM (active); in [19], 6.06 µM (active).

On to `COCC(=O)n1nc(-c2ccccc2)nc1NCc1cccs1`, for which the IC50 in [8] was 0.467 µM (active).

Take `CC1(C(=O)N/N=C/c2cc3c(cc2Br)OCO3)CC1(Br)Br` (stereo not given): the AC50 was 3.9 µM (active) in [10], 9.4 µM (active) in [11], 2.59 µM (active) in assay [12] and 15.2 µM (active) in [13].

For `C[C@@H]1CCCCO[C@@H](CN(C)Cc2ccc(C(F)(F)F)cc2)[C@H](C)CN([C@@H](C)CO)C(=O)c2cc(NC(=O)NC3CCCCC3)ccc2O1`, the half-maximal activity concentration (AC50) was 45.2 µM (active) in assay [20], 37.5 µM (active) in assay [1], 8.39 µM (active) in assay [2] and 50.9 µM (active) in assay [3].

In the case of `O=C(c1ccccc1F)N1CC(=O)N2[C@@H](CO)[C@@H](c3ccc(C#Cc4ccc(F)cc4)cc3)[C@@H]2C1`, the concentration at half-maximal activity (AC50) in assay [20] was 8.76 µM (active); in [1], 41.1 µM (active); in [2] it was 5.77 µM (active); in [3], 19.2 µM (active).

For the compound `CC1(C)C2CCC1(C)C(OCCNCCOC(=O)Nc1ccccc1)C2` (stereo not given), the half-maximal activity concentration (AC50) is 8.49 µM (active) in [10], 27.6 µM (active) in [11], 8.26 µM (active) in [12] and 27.5 µM (active) in [13].

`CC(Cc1ccccn1)NC(=O)CCc1nnc(C2CCCCC2)o1` (stereo not given): the figures for the IC50 in assay [5] and in [6] were > 83.3 µM (inactive) and > 109 µM (inactive), respectively.

Values taken from ChEMBL document CHEMBL1201862, “PubChem BioAssay data set” (2004).
